Data taken from patent US20110040086A1, “Novel Beta-Lactam Antibiotics, Methods for Their Production, and Their Use” (DRITTE PATENTPORTFOLIO BETEILIGUNGSGESELLSCHAFT MB, priority 2007, published 2011).

Tests used:
S. aureus ATCC 6538 = assay: agar diffusion test (Test System II, multi-resistant germs); format: cell-based, Staphylococcus aureus
Procedure, shortened: (§1)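 Discs loaded with 10, 50 or 100 μg compound (dissolved in methanol or distilled water) placed on Müller-Hinton agar II inoculated with McFarland 0.5 suspension. Incubated 18-20 h at 37 °C. Inhibition zone diameter read as activity.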

S. aureus 38418 = assay: as above; format: cell-based, Staphylococcus aureus
Procedure, shortened: as §1

[1] = tested on: Bacillus megaterium SBUG 1152; assay: agar diffusion test (Test System 1, antimicrobial effect); format: cell-based
Procedure, shortened: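 Paper discs loaded with 10 μg, 50 μg or 100 μg of test substance (methanol or water solution) placed on nutrient agar seeded with 10^6 cells of a 17-h B. megaterium culture. After 20 h at 37° C., zone of inhibition measured as diameter in mm.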

S. epidermidis 125 = assay: agar diffusion test (Test System II, multi-resistant germs); format: cell-based, Staphylococcus epidermidis
Procedure, shortened: as §1

[2] = tested on: Enterococcus faecalis 769; assay: as above; format: cell-based; design: key: r = resistant (no detectable zone of inhibition)
Procedure, shortened: as §1

[3] = tested on: Staphylococcus aureus 315; assay: as above; format: cell-based; design: key: r = resistant (no detectable zone of inhibition)
Procedure, shortened: as §1

[4] = tested on: Staphylococcus aureus ATCC 6538; assay: mouse infected with Staphylococcus aureus infection model (survival); format: in vivo, BALB/c mice
Procedure, shortened: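 Survival model: S. aureus grown to extinction 0.6 at 550 nm and injected i.p. (10 μl/g body weight) into cyclophosphamide-pretreated BALB/c mice (250 then 100 mg/kg i.p.), ≥3 animals per arm. Test antibiotic dosed i.p. at 30 min and again later at the same concentration, vehicle PBS/3% DMSO.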

S. aureus 33490 = assay: agar diffusion test (Test System II, multi-resistant germs); format: cell-based, Staphylococcus aureus; design: key: r = resistant (no detectable zone of inhibition)
Procedure, shortened: as §1

[5] = tested on: S. aureus North Germany strain; assay: as above; format: cell-based, Staphylococcus aureus; design: key: r = resistant (no detectable zone of inhibition)
Procedure, shortened: as §1

S. aureus 520 = assay: as above; format: cell-based, Staphylococcus aureus; design: key: r = resistant (no detectable zone of inhibition)
Procedure, shortened: as §1

S. aureus 526 = assay: as above; format: cell-based, Staphylococcus aureus; design: key: r = resistant (no detectable zone of inhibition)
Procedure, shortened: as §1

S. aureus 36881 = assay: as above; format: cell-based, Staphylococcus aureus; design: key: r = resistant (no detectable zone of inhibition)
Procedure, shortened: as §1

S. aureus 34289 = assay: as above; format: cell-based, Staphylococcus aureus; design: key: r = resistant (no detectable zone of inhibition)
Procedure, shortened: as §1

S. aureus 39105 = assay: as above; format: cell-based, Staphylococcus aureus; design: key: r = resistant (no detectable zone of inhibition)
Procedure, shortened: as §1

7-[2-(2-carbamoyl-3,6-dioxocyclohexa-1,4-dienylamino)-2-(4-hydroxyphenyl)-acetylamino]-desacetoxycephalosporanic acid [1b]
Diameter of zone of inhibition (S. aureus ATCC 6538; Quantity n 0.019): 16 mm
Diameter of zone of inhibition (S. aureus ATCC 6538; Quantity n 0.1): 24 mm
Diameter of zone of inhibition (S. aureus ATCC 6538; Quantity n 0.19): 28 mm
Diameter of zone of inhibition (S. aureus 38418; Quantity n [mol] 0.019): 16 mm
Diameter of zone of inhibition (S. aureus 38418; Quantity n [mol] 0.1): 24 mm
Diameter of zone of inhibition (S. aureus 38418; Quantity n [mol] 0.19): 26 mm
Diameter of zone of inhibition ([1]; Quantity n 0.019): 22 mm
Diameter of zone of inhibition ([1]; Quantity n 0.1): 30 mm
Diameter of zone of inhibition ([1]; Quantity n 0.19): 32 mm
Diameter of zone of inhibition (S. epidermidis 125; Quantity n 0.019): 14 mm
Diameter of zone of inhibition (S. epidermidis 125; Quantity n 0.1): 22 mm
Diameter of zone of inhibition (S. epidermidis 125; Quantity n 0.19): 26 mm
Diameter of zone of inhibition ([2]; Quantity n 0.019): r
Diameter of zone of inhibition ([2]; Quantity n 0.1): r
Diameter of zone of inhibition ([2]; Quantity n 0.19): r
Diameter of zone of inhibition ([3]; Quantity n 0.019): r
Diameter of zone of inhibition ([3]; Quantity n 0.1): r
Diameter of zone of inhibition ([3]; Quantity n 0.19): 8 mm
Survival/tested mice n/n ([4]; 2 × 1.0 mg (50 mg/kg) i.p.): 6/6
Diameter of zone of inhibition (S. aureus 33490; Quantity n [μmol] 0.019): r
Diameter of zone of inhibition (S. aureus 33490; Quantity n [μmol] 0.1): 14 mm
Diameter of zone of inhibition (S. aureus 33490; Quantity n [μmol] 0.19): 20 mm
Diameter of zone of inhibition ([5]; Quantity n 0.019): r
Diameter of zone of inhibition ([5]; Quantity n 0.1): 8 mm
Diameter of zone of inhibition ([5]; Quantity n 0.19): 12 mm
Diameter of zone of inhibition (S. aureus 520; Quantity n [mol] 0.019): r
Diameter of zone of inhibition (S. aureus 520; Quantity n [mol] 0.1): r
Diameter of zone of inhibition (S. aureus 520; Quantity n [mol] 0.19): r
Diameter of zone of inhibition (S. aureus 526; Quantity n 0.019): r
Diameter of zone of inhibition (S. aureus 526; Quantity n 0.1): r
Diameter of zone of inhibition (S. aureus 526; Quantity n 0.19): 12 mm
Diameter of zone of inhibition (S. aureus 36881; Quantity n 0.019): r
Diameter of zone of inhibition (S. aureus 36881; Quantity n 0.1): 12 mm
Diameter of zone of inhibition (S. aureus 36881; Quantity n 0.19): 18 mm
Diameter of zone of inhibition (S. aureus 34289; Quantity n [mol] 0.019): r
Diameter of zone of inhibition (S. aureus 34289; Quantity n [mol] 0.1): r
Diameter of zone of inhibition (S. aureus 34289; Quantity n [mol] 0.19): 12 mm
Diameter of zone of inhibition (S. aureus 39105; Quantity n 0.019): r
Diameter of zone of inhibition (S. aureus 39105; Quantity n 0.1): 12 mm
Diameter of zone of inhibition (S. aureus 39105; Quantity n 0.19): 18 mm

CC1=C(C(=O)O)N2C(=O)C(NC(=O)C(NC3=C(C(N)=O)C(=O)C=CC3=O)c3ccccc3)C2SC1 (centres unmarked) [1f, 7-[2-(2-carbamoyl-3,6-dioxocyclohexa-1,4-dienylamino)-2-phenyl-acetylamino]-desacetoxycephalosporanic acid]
Diameter of zone of inhibition (S. aureus ATCC 6538; Quantity n 0.02): 20 mm
Diameter of zone of inhibition (S. aureus ATCC 6538; Quantity n 0.1): 30 mm
Diameter of zone of inhibition (S. aureus ATCC 6538; Quantity n 0.2): 34 mm
Diameter of zone of inhibition (S. aureus 38418; Quantity n [mol] 0.02): 14 mm
Diameter of zone of inhibition (S. aureus 38418; Quantity n [mol] 0.1): 24 mm
Diameter of zone of inhibition (S. aureus 38418; Quantity n [mol] 0.2): 30 mm
Diameter of zone of inhibition ([1]; Quantity n 0.02): 20 mm
Diameter of zone of inhibition ([1]; Quantity n 0.1): 30 mm
Diameter of zone of inhibition ([1]; Quantity n 0.2): 32 mm
Diameter of zone of inhibition (S. epidermidis 125; Quantity n 0.02): 10 mm
Diameter of zone of inhibition (S. epidermidis 125; Quantity n 0.1): 22 mm
Diameter of zone of inhibition (S. epidermidis 125; Quantity n 0.2): 28 mm
Diameter of zone of inhibition ([2]; Quantity n 0.02): r
Diameter of zone of inhibition ([2]; Quantity n 0.1): r
Diameter of zone of inhibition ([2]; Quantity n 0.2): r
Diameter of zone of inhibition ([3]; Quantity n 0.02): r
Diameter of zone of inhibition ([3]; Quantity n 0.1): r
Diameter of zone of inhibition ([3]; Quantity n 0.2): 10 mm
Survival/tested mice n/n ([4]; 2 × 0.5 mg (25 mg/kg) i.p.): 3/3
Diameter of zone of inhibition (S. aureus 33490; Quantity n [μmol] 0.02): r
Diameter of zone of inhibition (S. aureus 33490; Quantity n [μmol] 0.1): 14 mm
Diameter of zone of inhibition (S. aureus 33490; Quantity n [μmol] 0.2): 16 mm
Diameter of zone of inhibition ([5]; Quantity n 0.02): r
Diameter of zone of inhibition ([5]; Quantity n 0.1): r
Diameter of zone of inhibition ([5]; Quantity n 0.2): 10 mm
Diameter of zone of inhibition (S. aureus 520; Quantity n [mol] 0.02): r
Diameter of zone of inhibition (S. aureus 520; Quantity n [mol] 0.1): r
Diameter of zone of inhibition (S. aureus 520; Quantity n [mol] 0.2): r
Diameter of zone of inhibition (S. aureus 526; Quantity n 0.02): r
Diameter of zone of inhibition (S. aureus 526; Quantity n 0.1): r
Diameter of zone of inhibition (S. aureus 526; Quantity n 0.2): r
Diameter of zone of inhibition (S. aureus 36881; Quantity n 0.02): r
Diameter of zone of inhibition (S. aureus 36881; Quantity n 0.1): r
Diameter of zone of inhibition (S. aureus 36881; Quantity n 0.2): 14 mm
Diameter of zone of inhibition (S. aureus 34289; Quantity n [mol] 0.02): r
Diameter of zone of inhibition (S. aureus 34289; Quantity n [mol] 0.1): r
Diameter of zone of inhibition (S. aureus 34289; Quantity n [mol] 0.2): r
Diameter of zone of inhibition (S. aureus 39105; Quantity n 0.02): r
Diameter of zone of inhibition (S. aureus 39105; Quantity n 0.1): r
Diameter of zone of inhibition (S. aureus 39105; Quantity n 0.2): 12 mm
